The values below come from patent US11583524B2, “Inhibitors of the interaction between MDM2 and P53” (Janssen Pharmaceutica NV, priority 2007, dated 2023).

The subject of the first data set is A2780 ovarian cancer cells. As to the kind of experiment: Alamar Blue cell proliferation assay, A2780. It is filed as cell-based, human. The settings on record: 4-day incubation. As to the method: Cellular activity of the compounds of formula (I) was determined on A2780 tumour cells using a colorimetric assay for cell toxicity or survival (see example C.2).
The human A2780 ovarian cancer cells were a kind gift from Dr. T. C. Hamilton (Fox Chase Cancer Centre, Pennsylvania, U.S.A.). The cells were cultured in RPMI 1640 medium supplemented with 2 mM L-Glutamine, 50 μg/ml gentamicin and 10% fetal calf serum.
(§1) Resazurin was purchased from Aldrich (Prod. No. 199303). Potassium ferrocyanide, potassium ferricyanide, KH2PO4 and K2HPO4 were purchased from Sigma (Prod. Nos. P9387, P8131, P5655 and P8281, respectively).
(§2) Potassium Phosphate Buffer 0.1 M (PPB) was made as follows: 2.72 gram KH2PO4 and 13.86 gram K2HPO4 were dissolved in 500 ml milli-Q H2O, the pH was adjusted to pH 7.4 and the volume was brought to 1 litre with milli-Q H2O; the buffer was filter sterilised and stored at room temperature. Resazurin stock solution (PPB-A) was prepared fresh by dissolving 45 mg resazurin in 15 ml PBS. 30 mM potassium ferricyanide (PPB-B) was prepared by dissolving 0.987 gram potassium ferricyanide in 100 ml PPB. 30 mM potassium ferrocyanide (PPB-C) was prepared by dissolving 1.266 gram potassium ferrocyanide in 100 ml PPB.
(§3) Mixture of PPB-A, PPB-B and PPB-C was prepared by mixing equal volumes of the respective solutions. Resazurin work solution (herein termed “Alamar Blue” solution) was prepared by diluting said mixture 20×(vol/vol) in PPB and filter sterilising; the Alamar Blue solution could be kept at 4° C. for a maximum of 2 weeks.
(§4) For experiments in 384 wells plates the cells were seeded at a density of 5×10^3 cells/ml in Falcon 384-well culture plates (Life Technologies, Merelbeke, Belgium), black with clear bottom, in 45 μl culture medium. Cells were allowed to adhere to plastic for 24 hr. The tested compound was pre-diluted (1/50 in culture medium) and 5 μl pre-diluted compound was added to the wells. Following 4-day incubation, 10 μl of the Alamar Blue solution was added to each well and the cells were further incubated for 5 hrs (A2780) or 6 hrs (U87MG) at 37° C. The fluorescence intensity was measured for each well with a Fluorescence plate reader (Fluorskan, Labsystems, 540 nm excitation and 590 nm emission)
(§5) The antiproliferative activity was calculated as percentage of remaining viable cells in treated versus control (untreated cells) conditions. Within an experiment, the result for each experimental condition is the mean of 3 replicate wells. When appropriate, the experiments were repeated to establish full concentration-response curves. When appropriate, IC50-values (concentration of the drug, needed to reduce cell growth to 50% of the control) were computed using probit analysis for graded data (Finney, D. J., Probit Analyses, 2nd Ed. Chapter 10, Graded Responses, Cambridge University Press, Cambridge 1962). Herein the effects of test compounds are expressed as pIC50 (the negative log value of the IC50-value) (see Table 4).
In general terms: The colour change of resazurin is a common sign of viable cells or microbes.
Consider `N#Cc1c(NCCc2c[nH]c3ccccc23)ccc(Nc2ccnc3c2CCC3O)c1N1CCOCC1` (stereo not shown) [Compound 57], for which the “A2780 cell proliferation inhibition pIC50” value was below 5.

For `Cc1cccc2c(CCNc3ccc(Nc4ccnc5c4CCC5O)c(N4CCOCC4)c3C#N)c[nH]c12` (stereo not shown) [Compound 58], the “A2780 cell proliferation inhibition pIC50” value is on record as below 5.

The data set is the same for the next values; noted with them: Homo sapiens, 96 h, 4-day incubation, read-out: A2780 cell proliferation inhibition pIC50 (converted).
On to `Cc1c(NCCc2c[nH]c3ccccc23)ccc(Nc2ccncc2)c1C` [Compound 1], for which the IC50 was above 10 µM.

Turning to `Cc1c(NCCc2c[nH]c3ccccc23)ccc(Nc2ccnc(CO)c2)c1C` [Compound 2], the IC50 is above 10 µM.

With `FC(F)(F)c1cc(Nc2ccncc2)cc(C(F)(F)F)c1NCCc1c[nH]c2ccccc12` [Compound 3], the IC50 is above 10 µM.

Take `OC1CCc2c(Nc3cc(C(F)(F)F)c(NCCc4c[nH]c5ccccc45)c(C(F)(F)F)c3)ccnc21` (stereo not shown) [Compound 5]: the IC50 was above 10 µM.

In the case of `c1ccc2c(CCNc3ccc(Nc4ccncc4)c4ccccc34)c[nH]c2c1` [Compound 6], the IC50 was above 10 µM.

Turning to `Cc1cc(Nc2ccnc3c2CCC3O)c(Cl)cc1NCCc1c[nH]c2ccccc12` (stereo not shown) [Compound 9], the IC50 is 4.17 µM.

With `Cc1cc(Nc2ccnc3c2CCC3O)c(Cl)cc1NCCc1c[nH]c2c(C)cccc12` (stereo not shown) [Compound 10], the IC50 is 3.55 µM.

For the next data set, the system named is U87MG glioma cells. The experiment in a line: Alamar Blue cell proliferation assay, U87MG. It is filed as cell-based, human. The settings on record: 4-day incubation. Here is the method:
The human U87MG glioma cells were cultured in DMEM medium supplemented with 2 mM L-Glutamine, 1 mM Sodium Pyruvate, 1.5 g/L Sodium Bicarbonate, 50 μg/ml gentamicin and 10% heat inactivated fetal calf serum. (U87MG cells are human glioblastoma cells with wild type p53. In this cell line MDM2 tightly controls p53 expression).
as §1, §2, §3, §4, §5
On to `N#Cc1c(NCCc2c[nH]c3ccccc23)ccc(Nc2ccnc3c2CCC3O)c1N1CCOCC1` (stereo not shown) [Compound 57], for which the “U87MG cell proliferation inhibition pIC50” value is reported as below 5.

With `Cc1cccc2c(CCNc3ccc(Nc4ccnc5c4CCC5O)c(N4CCOCC4)c3C#N)c[nH]c12` (stereo not shown) [Compound 58], the “U87MG cell proliferation inhibition pIC50” value is listed as below 5.

The data set is the same for the next values; noted with them: Homo sapiens, U-87 MG, 96 h, 4-day incubation, read-out: U87MG cell proliferation inhibition pIC50 (converted).
On to `Cc1c(NCCc2c[nH]c3ccccc23)ccc(Nc2ccncc2)c1C` [Compound 1], for which the IC50 is above 10 µM.

In the case of `Cc1c(NCCc2c[nH]c3ccccc23)ccc(Nc2ccnc(CO)c2)c1C` [Compound 2], the IC50 is 7.76 µM.

Regarding `FC(F)(F)c1cc(Nc2ccncc2)cc(C(F)(F)F)c1NCCc1c[nH]c2ccccc12` [Compound 3], the IC50 was above 10 µM.

`OC1CCc2c(Nc3cc(C(F)(F)F)c(NCCc4c[nH]c5ccccc45)c(C(F)(F)F)c3)ccnc21` (stereo not shown) [Compound 5]: the IC50 was above 10 µM.

`c1ccc2c(CCNc3ccc(Nc4ccncc4)c4ccccc34)c[nH]c2c1` [Compound 6]: the IC50 is 1.58 µM.

Consider `Cc1cc(Nc2ccnc3c2CCC3O)c(Cl)cc1NCCc1c[nH]c2ccccc12` (stereo not shown) [Compound 9], for which the IC50 is above 10 µM.

With `Cc1cc(Nc2ccnc3c2CCC3O)c(Cl)cc1NCCc1c[nH]c2c(C)cccc12` (stereo not shown) [Compound 10], the IC50 is 2.82 µM.

Tested on in a further data set: not given
Experiment: not given
Conditions: not given
Usually melting point stands for the temperature, or range, at which the solid turns liquid. Regarding `Cc1c(NCCc2c[nH]c3ccccc23)ccc(Nc2ccncc2)c1C` [Compound 1], the melting point is 186 °C.

`Cc1c(NCCc2c[nH]c3ccccc23)ccc(Nc2ccnc(CO)c2)c1C` [Compound 2] registered a melting point of 163 °C.

The molecule `FC(F)(F)c1cc(Nc2ccncc2)cc(C(F)(F)F)c1NCCc1c[nH]c2ccccc12` [Compound 3] returned a melting point of 187 °C.

In the case of `OC1CCc2c(Nc3cc(C(F)(F)F)c(NCCc4c[nH]c5ccccc45)c(C(F)(F)F)c3)ccnc21` (stereo not shown) [Compound 5], the melting point was found to be 178 °C.

The molecule `c1ccc2c(CCNc3ccc(Nc4ccncc4)c4ccccc34)c[nH]c2c1` [Compound 6] came in with a melting point of 166 °C.

`Cc1cc(Nc2ccnc3c2CCC3O)c(Cl)cc1NCCc1c[nH]c2ccccc12` (stereo not shown) [Compound 9] had a melting point of 207 °C.

The molecule `Cc1cc(Nc2ccnc3c2CCC3O)c(Cl)cc1NCCc1c[nH]c2c(C)cccc12` (stereo not shown) [Compound 10] had a melting point of 237 °C.

In the next data set the test system is p53 in A2780 cells. As to the kind of experiment: p53 ELISA (preservation of p53 in A2780 cells). The settings on record: Homo sapiens, lowest dose giving at least 140% of the p53 value in the control, 16 hours treatment, read-out: p53-elisa LAD. It counts as cell-based, human. As to the method: The capacity of the compounds to preserve p53 in A2780 cells was measured with the p53 enzyme linked immunosorbent assay (ELISA). The p53 assay is a “sandwich” enzyme immunoassay employing two polyclonal antibodies. A polyclonal antibody, specific for the p53 protein, has been immobilized onto the surface of the plastic wells. Any p53 present in the sample to be assayed will bind to the capture antibody. The biotinylated detector polyclonal antibody also recognizes p53 protein, and will bind to any p53, which has been retained by the capture antibody. The detector antibody, in turn, is bound by horseradish peroxidase-conjugated streptavidin. The horseradish peroxidase catalyses the conversion of the chromogenic substrate o-phenylene diamine, the intensity of which is proportional to the amount of p53 protein bound to the plate. The coloured reaction product is quantified using a spectrophotometer. Quantitation is achieved by the construction of a standard curve using known concentrations of purified recombinant HIS tagged p53 protein (see example C.1).
A2780 cells (ATCC) were cultivated in RPMI 1640 supplemented with 10% fetal calf serum (FCS), 2 mM L-glutamine and gentamycin at 37° C. in a humidified incubator with 5% CO2.
A2780 cells were seeded at 20.000 cells per well in a 96 well plate, cultured for 24 hours and treated with compound for 16 hours at 37° C. in a humidified incubator. After incubation, the cells were washed once with phosphate-buffered saline and 30 μl, per well, low salt RIPA buffer (20 mM tris, pH7.0, 0.5 mM EDTA, 1% Nonidet P40, 0.5% DOC, 0.05% SDS, 1 mM PMSF, 1 μg/ml aprotinin and 0.5 μ/ml leupeptin) was added. Plates were placed on ice for 30 minutes to complete the lysis. p53 protein was detected in de lysates by using the sandwich ELISA, described below.
High binding polystyrene EIA/RIA 96 well plates (Costar 9018) were coated with the capture antibody pAb1801 (Abcam ab28-100) at a concentration of 1 μg/ml in coating buffer (0.1 M NaHCO3 pH8.2), 50 μl per well. The antibody was allowed to adhere overnight at 4° C. Coated plates were washed once with phosphate-buffered saline (PBS)/0.05% Tween 20 and 300 μl of blocking buffer (PBS, 1% bovine serum albumins (BSA)) was added, for an incubation period of 2 hours at room temperature. Dilutions of purified recombinant HIS tagged p53 protein, ranging from 3-200 ng/ml, were made in blocking buffer and used as standards.
Plates were washed twice with PBS/0.05% Tween 20 and blocking buffer or standards were added at 80 μl/well. To the standards, 20 μl of lysis buffer was added. The samples were added to the other wells at 20 μl lysate/well. After an overnight incubation at 4° C., plates were washed twice with PBS/0.05% Tween 20. Aliquots of 100 μl secondary polyclonal antibody p53(FL-393) (Tebubio, sc-6243) at a concentration of 1 μg/ml in blocking buffer were added to each well and allowed to adhere for 2 hours at room temperature. Plates were washed three times with PBS/0.05% Tween 20. Detection antibody anti-rabbit HRP (sc-2004, Tebubio) at 0.04 μg/ml in PBS/1% BSA was added and incubated for 1 hour at room temperature. Plates were washed three times with PBS/0.05% Tween 20 and 100 μl of substrate buffer was added (substrate buffer was prepared shortly before use by adding 1 tablet of 10 mg o-phenylene diamine (OPD) from Sigma and 125 μl 3% H2O2 to 25 ml OPD buffer: 35 mM citric acid, 66 mM Na2HPO4, pH5.6). After 5 to 10 minutes, colour reaction was stopped by adding 50 μl stop buffer (1 M H2SO4) per well. The absorbance at dual wavelengths of 490/655 nm was measured using a Biorad micro plate reader and the results were then analyzed.
For each experiment, controls (containing no drug) and a blank incubation (containing no cells or drugs) were run in parallel. The blank value was subtracted from all control and sample values. For each sample, the value of p53 (in absorbance units) was expressed as the percentage of the value for p53 present in the control. […]
Consider `Cc1c(NCCc2c[nH]c3ccccc23)ccc(Nc2ccncc2)c1C` [Compound 1], for which the minimal effective concentration is above 10 µM.

With `Cc1c(NCCc2c[nH]c3ccccc23)ccc(Nc2ccnc(CO)c2)c1C` [Compound 2], the minimal effective concentration is 3 µM.

Take `FC(F)(F)c1cc(Nc2ccncc2)cc(C(F)(F)F)c1NCCc1c[nH]c2ccccc12` [Compound 3]: the minimal effective concentration was above 10 µM.

Consider `OC1CCc2c(Nc3cc(C(F)(F)F)c(NCCc4c[nH]c5ccccc45)c(C(F)(F)F)c3)ccnc21` (stereo not shown) [Compound 5], for which the minimal effective concentration was found to be 0.3 µM.

With `c1ccc2c(CCNc3ccc(Nc4ccncc4)c4ccccc34)c[nH]c2c1` [Compound 6], the minimal effective concentration was determined as 1 µM.

Regarding `Cc1cc(Nc2ccnc3c2CCC3O)c(Cl)cc1NCCc1c[nH]c2ccccc12` (stereo not shown) [Compound 9], the minimal effective concentration is above 10 µM.

`Cc1cc(Nc2ccnc3c2CCC3O)c(Cl)cc1NCCc1c[nH]c2c(C)cccc12` (stereo not shown) [Compound 10]: the minimal effective concentration is 1 µM.

Still in this data set, the particulars now being: lowest dose giving at least 140% of the p53 value in the control, 16 hours treatment.
With `N#Cc1c(NCCc2c[nH]c3ccccc23)ccc(Nc2ccnc3c2CCC3O)c1N1CCOCC1` (stereo not shown) [Compound 57], the “p53-elisa LAD” value was above 10.0 µM.

Turning to `Cc1cccc2c(CCNc3ccc(Nc4ccnc5c4CCC5O)c(N4CCOCC4)c3C#N)c[nH]c12` (stereo not shown) [Compound 58], the “p53-elisa LAD” value was above 10.0 µM.
